The results in this text go back to patent US5756491A, “Antiviral cobalt-organic compounds” (priority 1991, dated 1998).

For one assay, the system named is HSV-1. In words: HSV-1 plaque reduction assay. The class given is cell-based. Also on record: IC50: unit not given beside the values. The following applies: for IC50: toxicity IC50. Here is the method:
(§1) Two days prior to use, HFF cells are plated into six well plates and incubated at 37° C. with 5% CO2 and 90% humidity. On the date of assay, the drug is made up at twice the desired concentration in 2×MEM and then serially diluted 1:5 in 2×MEM using six concentrations of drug. The initial starting concentration is usually 200 μg/ml down to 0.06 μg/ml. The virus to be used is diluted in MEM containing 10% FBS to a desired concentration which will give 20-30 plaques per well. The media is then aspirated from the wells and 0.2 ml of virus is added to each well in duplicate with 0.2 ml of media being added to drug toxicity wells. The plates are then incubated for one hour with shaking every fifteen minutes. After the incubation period, an equal amount of 1% agarose was added to a equal volume of each drug dilution. This will give final drug concentrations beginning with 100 μg/ml and ending with 0.03 μg/ml and a final agarose overlay concentration of 0.5%. The drug agarose mixture is applied to each well in 2 ml volume and the plates then incubated for three days, after which the cells were stained with a 1.5% solution of neutral red. At the end of 4-6 hr incubation period, the stain is aspirated, and plaques counted using a stereomicroscope at 1×magnification.
(§2) The procedure for the liquid overlay plaque assay is similar to that using the agarose overlay. The procedure for adding the virus is the same as for the regular plaque assay. The drugs are made up in a concentration to be used in MEM with 2% FBS. The drugs are not made up at 2×concentration as in previous assays but are made up at the desired concentration. For HSV-1 and HSV-2 assays, an antibody preparation obtained from Baxter Health Care Corporation is diluted 1:500 and added to the media that the drug is diluted in. For CMV and VZV, no antibody in the overlay is utilized. For the CMV assay, additional medium without new drug is added on day six and allowed to incubate for a total of 11 days. For VZV, additional media is added on day five and incubated for a total of eight days. At the end of the incubation period for all of the assays, the medium is removed, the cells washed and then stained with 0.1% crystal violet solution for ten minutes. The cells are then rinsed several times to remove any excess crystal violet and plaques enumerated using a stereomicroscope.
(§3) I. EC50 values were also determined for each of the viruses tested for known antiviral agents. The comparison compound was ACV for all viruses except for HCMV aherein DHPG was the comparison compound. In Table 26, these comparison EC50 values are indicated with an asterisk. In Table 27, the drug FIAU (2'-fluoro-5-iodo-arabinosyl-uracil) was used as a control.
In general terms: Plaques are areas of infected cells; plaque reduction assays count them against a control.

The subject of another assay is HSV-2. In words: HSV-2 plaque reduction assay. The class given is cell-based. The following applies: for IC50: toxicity IC50. Also on record: unit not given beside the values. Here is the method: as §1, §2, §3
Assay [1] relates to HSV-2 (MS strain). Put plainly: Vaginal virus replication in primary genital HSV-2 infection of guinea pigs. The class given is in vivo, Female Hartley strain guinea pigs. The following applies: for # Infected/# Inoculated / Mean Peak Virus Titer / P-Value for Mean Peak Virus Titer / Virus Titer-Day Area Under Curve: 20 mg/ml; for infectivity rate: treatment beginning 6 h after infection. Here is the method:
(§4) A series of studies were carried out to compare the activity of inventive antiviral Compounds 23, 76, and 82 in a primary genital HSV-2 infection of guinea pigs. The experiments were placebo-controlled and uninfected animals were treated with three concentrations of each of the preparations to assess skin irritation and determine the maximum tolerated dose.
(§5) The MS strain of HSV-2 was utilized for the experimental animal infection. Female Hartley strain guinea pigs (Charles River Breeding Laboratories, Kingston, N.Y.) weighing 250-300 g were inoculated intravaginally with 1.4×10^5 plaque forming units of HSV-2 one hour after being swabbed for the removal of vaginal secretions.
(§6) Groups of 10 infected guinea pigs were treated topically as stated above with 20 mg/ml (the maximum tolerated dose) of each compound beginning 6 h or 24 h after inoculation with HSV-2.
To determine the effect of treatment on vaginal virus replication, swabs of vaginal secretions were obtained on days 1, 3, 5, 7, and 10 after HSV-2 inoculation, placed in a tube containing 2.0 ml of media, vortexed and frozen at -70° until titrated for HSV-2. When all samples were collected, they were thawed, diluted serially and HSV-2 titers were determined using rabbit kidney cells in a microtiter CPE assay. Mean peak virus titers and areas under the virus titer-day curves were calculated and analyzed.
(§7) The number of animals infected over the number inoculated, lesion score-day areas and virus titer-day areas under the curve, peak lesion scores and peak virus titers between untreated and placebo-treated or placebo-treatedand drug-treated animals were compared using the Mann-Whitney U rank sum test. A p-value of 0.05 or less was considered significant.

Assay [2] deals with HSV-2 (MS strain). Put plainly: External genital lesion development in primary genital HSV-2 infection of guinea pigs. More on the design: key to Lesion Score-Day Area Under Curve: area under 0-5+ lesion score vs day curve (score-days); key to Mean Peak Lesion Score: lesion severity on 0-5+ scale. The assay is classed as in vivo, Female Hartley strain guinea pigs. The following applies: 20 mg/ml. Here is the method: as §4, §5, §6
To determine the effect of therapy on the development and spread of external genital lesions, lesion severity was scored on a 0-5+ scale through the primary infection (21 days). Mean peak lesion scores and the areas under the lesion score-day curves were calculated and analyzed.
as §7

The structures appear in SMILES notation.

`CC1=CC(C)=[N+]2CC[N+]3=C(C)C=C(C)[O][Co-3]23([NH3+])([NH3+])[O]1.[Cl-]` [Compound 23, reference compound]: in the assay with HSV-1, the EC50 was over 4 and the IC50 stood at 7.0. In the assay with HSV-2, the EC50 is listed as over 4 and the IC50 turned out to be 7.0. In addition, in the assay with HSV-2 (MS strain) [1] (started +6h), the “# Infected/# Inoculated” value is reported as 5/10, the “Mean Peak Virus Titer” value was determined as 1.1, the “P-Value for Mean Peak Virus Titer” value was under 0.001 and the “Virus Titer-Day Area Under Curve” value worked out at 1.7. For the same molecule, in the assay on HSV-2 (MS strain) [1] (started +24h), the “# Infected/# Inoculated” value is recorded as 10/10, the “Mean Peak Virus Titer” value is 4.1 and the “Virus Titer-Day Area Under Curve” value worked out at 14.5. This molecule came in with an infectivity rate in the assay with HSV-2 (MS strain) [1] of 50%. For the same molecule, in the assay with HSV-2 (MS strain) [2] (started +6h), the “Lesion Score-Day Area Under Curve” value stood at 0.0, the “Mean Peak Lesion Score” value was 0.0 and the “P-Value for Mean Peak Lesion Score” value was under 0.001. In addition, in the assay on HSV-2 (MS strain) [2] (started +24h), the “Lesion Score-Day Area Under Curve” value came to 43.8 and the “Mean Peak Lesion Score” value was determined as 3.4.
For the molecule `CC([O-])=CC(C)=NCCN=C(C)C=C(C)[O-].[Cl-].[Co+3].c1c[nH]cn1.c1c[nH]cn1` [Compound 82], in the assay on HSV-2 (MS strain) [1] (started +6h), the “# Infected/# Inoculated” value was 5/10, the “Mean Peak Virus Titer” value amounted to 1.1, the “P-Value for Mean Peak Virus Titer” value is under 0.001 and the “Virus Titer-Day Area Under Curve” value worked out at 3.3. Further, in the assay on HSV-2 (MS strain) [1] (started +24h), the “# Infected/# Inoculated” value is on record as 10/10, the “Mean Peak Virus Titer” value was determined as 4.6 and the “Virus Titer-Day Area Under Curve” value was 26.4. The “effect on virus titer AUC” value with HSV-2 (MS strain) [1] (started +24 h) is given as “failed to alter the virus titer AUC”. This molecule also gave an infectivity rate in the assay with HSV-2 (MS strain) [1] of 50%. For the same molecule, in the assay with HSV-2 (MS strain) [2] (started +6h), the “Lesion Score-Day Area Under Curve” value is 3.5, the “Mean Peak Lesion Score” value is 0.7 and the “P-Value for Mean Peak Lesion Score” value was under 0.001. In the assay on HSV-2 (MS strain) [2] (started +24h), the “Lesion Score-Day Area Under Curve” value stood at 53.8 and the “Mean Peak Lesion Score” value is on record as 3.4.
Turning to `CC([O-])=CC(C)=NCCN=C(C)C=C(C)[O-].Cc1ncc[nH]1.Cc1ncc[nH]1.[Br-].[Co+3]` [Compound 96], in the assay with HSV-1, the EC50 is on record as over 4 and the IC50 is 10.2. For the same molecule, in the assay on HSV-2, the EC50 is recorded as over 4 and the IC50 came to 10.2.
